From patent US8338624B2, “Isoflavone derivatives and uses thereof” (Yeda Research and Development Co., Ltd., priority 2007, dated 2012)

How the values were obtained:
[1] = system: 320DM human colon cancer cells; test: DNA synthesis by [3H]-thymidine incorporation, 320DM cells; format: cell-based
Protocol: (§1) Cells were cultured in MEM supplemented with 10% FCS and antibiotics. Cells were grown to subconfluence and then treated with various hormones or agents as described by Somjen et al. (Somjen et al., 1998). The cells were characterized in terms of expression of mRNAs for estrogen […] by real time PCR, and the results are summarized in Table 1. N87, 320DM and H295R cells expressed mRNAs for both ERs. The ratio of ERα to ERβ was 1:8.5, 1:30 and 1:1.8 in N87, 320DM and H295R cells, respectively. Ovarian A2780 and prostate C4-24 cells expressed mainly mRNA for ERβ, and the ratio of ERβ to ERα was 300:1 and 70:1, respectively. MLS ovarian cells expressed mRNA only for ERβ. The ratio of ERα to ERβ in T47D cells has been reported to be 9:1.
[^3H]-Thymidine incorporation into DNA was used for the assessment of the various effects (proliferative or inhibitory) of various isoflavones, isoflavone derivatives and known cytotoxic drugs in the above-mentioned cells. Cells were grown until subconfluence using conditions described in Somjen et al. […] At the end of incubation, [^3H]-thymidine was added for two hours. Cells were then treated with 10% ice-cold trichloroacetic (TCA) for 5 min and washed twice with 5% TCA and then with cold ethanol. The cellular layer was dissolved in 0.3 ml of 0.3 M NaOH, aliquots were taken for counting radioactivity, and [^3H]-thymidine incorporation into DNA was calculated.

[2] = system: A2780 ovarian cancer cells; test: DNA synthesis by [3H]-thymidine incorporation, A2780 cells; format: cell-based, human
Protocol: as §1
(§2) [^3H]-Thymidine incorporation into DNA was used for the assessment of the various effects (proliferative or inhibitory) of various isoflavones, isoflavone derivatives and known cytotoxic drugs in the above-mentioned cells. Cells were grown until subconfluence using conditions described in Somjen et al. (Somjen et al., 1998) and then treated with various agents for 24 or 48 h as indicated. At the end of incubation, [^3H]-thymidine was added for two hours. Cells were then treated with 10% ice-cold trichloroacetic (TCA) for 5 min and washed twice with 5% TCA and then with cold ethanol. The cellular layer was dissolved in 0.3 ml of 0.3 M NaOH, aliquots were taken for counting radioactivity, and [^3H]-thymidine incorporation into DNA was calculated.

[3] = system: H295R adrenocarcinoma cells; test: DNA synthesis by [3H]-thymidine incorporation, H295R cells; format: cell-based, human
Protocol: as §1, §2

[4] = system: human prostate C4-2B cancer cells; test: DNA synthesis by [3H]-thymidine incorporation, C4-2B cells; format: cell-based
Protocol: as §1, §2

[5] = system: Human umbilical vascular smooth muscle cells (VSMC); test: DNA synthesis by [3H]-thymidine incorporation, normal VSMC; format: cell-based; settings: compound at 3 μM
Protocol: Human umbilical vascular smooth muscle cells (VSMC) sensitive to estrogen, were grown in culture as described above, and used only at passages 1-3, when expression of smooth muscle actin was clearly demonstrable (Somjen et al. 2000). The ratio of the expression of mRNA for ERα to ERβ was 2.7:1.
as §2

[6] = system: T47D mammary cancer cells; test: DNA synthesis by [3H]-thymidine incorporation, T47D cells; format: cell-based, human; settings: Homo sapiens
Protocol: as §1, §2

320DM colon xenografts = 320DM colon xenografts in nude mice; format: in vivo; settings: 320DM xenografts, 8 ip daily 230 μg, 9 injections within 11 days
Excerpt: Female CD1 nude mice (8-week old, ˜30 g) were housed and handled with free access to food and water in the animal facility according to the guidelines (1996) of the Institutional Animal Care and Use Committee of the Weizmann Institute of Science, Rehovot, Israel.
Thirty female CD-1 nude mice were inoculated sc with 2×10^6 320DM human colon cancer cells. Two weeks later, 13 mice that developed palpable tumors were divided into two groups: control (5 mice) and treatment (8 mice). Each mouse of the treatment group received daily intra-peritoneal (ip) injections of compound 8 (230 μg in 70 μl of propylene glycol:PBS (20:80)) and the control mice received only propylene glycol:PBS. Each treated mouse received 9 injections within 11 days. The tumors were measured with calipers every other day during 12 days in two dimensions, length (a) and width (b), and tumor area was calculated using the formula: r^2×3.14, where r=a/2+b/2/2. The tumor area on Day 0 was taken as 100%.

Structure (SMILES): CC(C)(C)OC(=O)NCCCCCCNC(=O)CCCc1oc2cc(O)cc(O)c2c(=O)c1-c1ccc(O)cc1 [Compound 8, 2-[3-[N-[6-(tert-Butoxycarbonyl)-aminohexyl]]-caboxamidopropyl]-5,7,4′-trihydroxyisoflavone]
- effect on DNA synthesis / growth ([1]; 30 to 3000 nM): significant growth inhibitory effect
- DNA synthesis, ratio experimental/control (E/C) ([1]; compound at 3 μM): 0.2 ± 0.09
- effect on DNA synthesis ([2]; at 3 μM): had no effect
- DNA synthesis, ratio experimental/control (E/C) ([2]; compound at 3 μM): 1.12 ± 0.19
- inhibition at 3 µM ([3]; Homo sapiens, NCI-H295R, at 3 μM, read-out: inhibition of DNA synthesis / growth): 40 to 45%
- DNA synthesis, ratio experimental/control (E/C) ([3]; compound at 3 μM): 0.6 ± 0.14
- inhibition of DNA synthesis ([4]; at 30 nM and 300 nM): 10-15%
- DNA synthesis, ratio experimental/control (E/C) ([4]; compound at 0.3 μM): 0.75 ± 0.07
- DNA synthesis, ratio experimental/control (E/C) [5]: 0.78 ± 0.1
- inhibition at 10 µM [6]: 24 to 40%
- effect on growth of tumors (320DM colon xenografts): slowed down the growth of the tumors
